Target: Intermediate conductance calcium-activated potassium channel protein 4 (Homo sapiens, UniProt O15554)
Assay: Inhibition Assay: Human HEK293 cells over-expressing human IK are grown in culture medium (DMEM supplemented with 10% foetal bovine serum), in polystyrene culture flasks ([…]) in a humidified atmosphere of 5% CO2 in air, at 37° C. Cell confluence should be 80-90% on day of plating. Cells are rinsed with 4 mL of PBS (phosphate buffered saline) and incubated 2 min with 1 mL of Trypsin-EDTA. After addition of 25 mL of culture medium cells are re-suspended by trituration with a 25 mL pipette.The cells are seeded at a density of 3×10^6 cells/mL (25 μL/well) in black-walled, clear bottom, 384-well plates pre-treated with 0.01 g/L poly-D-lysin (20 μL/well for ≧30 min). Plated cells were allowed to proliferate for 24 h before loading with dye.BTC-AM ([…], Invitrogen) is added 25.5 μl DMSO. The BTC-AM stock solution (2 mM) is diluted to a final concentration of 2 μM in Cl+ free assay buffer (in mM: 140 Na+-gluconate, 2.5 K+-gluconate, 6 Ca2+-gluconate, 1 Mg2+ gluconate, 5 glucose, 10 HEPES, pH 7.3) containing 2 μM ouabain, 2 mM amaranth and 1 mM tartrazine.The culture medium is aspirated from the wells, and 25 μl of the BTC-AM loading solution are added to each well. The cells are incubated at 37° C. for 60 min.After the loading period, the Tl+-sensitive BTC fluorescence signal is measured over time using a FLIPR.

Chain of Intermediate conductance calcium-activated potassium channel protein 4 (O15554 whole entry): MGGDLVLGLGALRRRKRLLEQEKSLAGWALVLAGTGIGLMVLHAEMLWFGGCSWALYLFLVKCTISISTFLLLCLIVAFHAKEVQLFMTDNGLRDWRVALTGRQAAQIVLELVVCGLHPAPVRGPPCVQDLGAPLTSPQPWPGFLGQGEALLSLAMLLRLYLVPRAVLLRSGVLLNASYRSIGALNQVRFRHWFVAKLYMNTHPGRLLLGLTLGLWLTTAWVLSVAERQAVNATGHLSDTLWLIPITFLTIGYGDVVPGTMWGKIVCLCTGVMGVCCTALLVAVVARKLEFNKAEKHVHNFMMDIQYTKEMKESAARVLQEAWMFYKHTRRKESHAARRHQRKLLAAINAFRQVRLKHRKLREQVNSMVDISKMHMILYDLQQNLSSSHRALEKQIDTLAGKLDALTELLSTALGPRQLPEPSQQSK

## COCCNc1ccccc1-c1ccccc1-c1nnnn1-c1ccccc1F
  IC50: 0.68 µM

Source: ChEMBL document CHEMBL5725438, “Tetrazole derivatives and their use as potassium channel modulators” (2017)
